The text below walks through data of US9138438B2, “Method for protecting a retinal neuronal cell” (ASAHI GLASS COMPANY, LIMITED, priority 2005, dated 2015).

This experiment concerns rat fetal retinal neuronal cells. Nature of the experiment: Glutamate-induced retinal neuronal cell death, trypan blue survival rate. Format: cell-based. Particulars: test compound 0.1 nM to 100 nM; 24 hours pre-incubation, 1 mM glutamate 10 minutes, then 1 hour with test compound; survival rate by trypan blue. The protocol:
In order to find a new pharmaceutical application of a prostaglandin F2α derivative, by using rat fetal retinal neuronal cells, an effect of a prostaglandin F2α derivative on protecting retinal neuronal cells against glutamate-induced retinal neuronal cell death was evaluated and examined.
Incidentally, as the prostaglandin F2α derivative which is a test compound, 16-phenoxy-15-deoxy-15,15-difluoro-17,18,19,20-tetranor-prostaglandin F2α was used.
A pregnant SD rat was subjected to laparotomy under systemic anesthesia, and the uterus was transferred to a dish containing Hanks's balanced salt solution (HBSS). A rat fetus was isolated from the uterus, and the eyeballs of the rat fetus were taken out. The retina was isolated from the eyeballs under a stereoscopic microscope and cut into pieces with a surgical knife. […] After the cell number was counted with a hemocytometer, an MEM medium containing 10% FBS was added thereto, whereby a cell suspension with a cell density of 0.8×10^6 cells/mL was obtained. […]
At day 10 of culture, the plastic discs in which cells were inoculated and cultured were transferred to the HS-containing MEM medium containing the test compound and incubated for 24 hours (37° C., 5% CO2). […] After the cells were washed with a physiological saline solution, stained cells and unstained cells were counted under an inverted microscope. […]

As to `O=C(O)CCC/C=C\C[C@@H]1[C@@H](/C=C/C(F)(F)COc2ccccc2)[C@H](O)C[C@@H]1O` [test compound, 16-phenoxy-15-deoxy-15,15-difluoro-17,18,19,20-tetranor-prostaglandin F2α], the “glutamate-induced retinal neuronal cell death” value is reported as “inhibited in a concentration-dependent manner”.
